Experimental data published in US4733003A, “Octahydronaphthalene derivatives and their preparation” (Sankyo Company Limited, priority 1981, dated 1988).

Tested on: cholesterol biosynthesis
Experiment: inhibition of cholesterol biosynthesis (method of J. Biol. Chem. 234, 2835 (1959))
Format: biochemical
Details: method of Journal of Biological Chemistry, 234, 2835 (1959)
Description: The compounds of the invention in which R^1 and R^2 both represent oxygen atoms are, as already described, valuable intermediates for the synthesis of the active compounds. The inhibitory activities of certain of the compounds of the invention, in terms of the concentration in ng/ml required to inhibit colesterol biosynthesis by 50% [measured by the method described in the Journal of Biological Chemistry, 234, 2835 (1959)], are as follows (for comparison, the value for ML-236B lactone is also given): […]

Compound | concentration required to inhibit colesterol biosynthesis by 50% [ng/mL]
CCC(C)C(=O)OC1CCC(=NO)C2=CC(=NO)C(C)C(CCC3CC(O)CC(=O)O3)C21 (single isomer, unassigned) [isomer a (Example 3), 3,4-Dihydro-4,6-bis(hydroxyimino)IsoML-236B lactone] | 4.5
CCC(C)C(=O)OC1CCC(=NO)C2=CC(=NO)C(C)C(CCC3CC(O)CC(=O)O3)C21 (single isomer, unassigned) [isomer b (Example 3), 3,4-Dihydro-4,6-bis(hydroxyimino)IsoML-236B lactone] | 4.3
CC1C(=O)C=C2C(=NO)CCC(O)C2C1CCC1CC(O)CC(=O)O1 (centres unmarked) [3,4-Dihydro-6-oxo-4-hydroxyiminoIsoML-236A lactone] | 0.9
CCC(C)C(=O)OC1CCC(=NO)C2=CC(=O)C(C)C(CCC3CC(O)CC(=O)O3)C21 (centres unmarked) [3,4-Dihydro-6-oxo-4-hydroxyiminoIsoML-236B lactone] | 0.3
CCC(C)C(=O)OC1CCC(=NOC)C2=CC(=O)C(C)C(CCC3CC(O)CC(=O)O3)C21 (centres unmarked) [3,4-Dihydro-6-oxo-4-methoxyiminoIsoML-236B lactone] | 0.6
CCC(C)C(=O)OC1CCC=C2C=CC(C)C(CCC3CC(O)CC(=O)O3)C21 (centres unmarked) [ML-236B lactone, reference compound] | 10
CCC(C)C(=O)OC1CCC(=NO)C2=CC(=O)C(C)C(CCC(O)CC(O)CC(=O)O)C21 (centres unmarked) [disodium 3,4-dihydro-6-oxo-4-oxidoiminoIsoML-236B carboxylat] [Disodium 3,4-dihydro-6-oxo-4-oxidoiminoIsoML-236B carboxylate] | 0.4
CCC(C)C(=O)OC1CCC(=NO)C2=CC(=O)C(C)C(CCC(O)CC(O)CC(=O)O)C21 (centres unmarked) [sodium 3,4-dihydro-6-oxo-4-hydroxyiminoIsoML-236B carboxylat] [Sodium 3,4-dihydro-6-oxo-4-hydroxyiminoIsoML-236B carboxylate] | 0.3
